Source: ChEMBL document CHEMBL6134812, “A thiocoumarin based self-reporting sulfide prodrug strategy with a favorable safety profile” (Eur J Med Chem, 2025)
Active and inactive are the calls of the source. No cut-off for these calls is given here.

Legend:
[1] = Prodrug release in Sprague-Dawley rat plasma assessed as increase in fluorescence intensity by measuring half life at 500 uM by fluorescence based analysis; format: ADME, cell-free
[2] = target: T1, Liver carboxylesterase (Sus scrofa, UniProt Q29550); assay: Prodrug release assessed as pig liver esterase-mediated H2S and fluorescent coumarin release by measuring half life of drug at 500 uM by HPLC analysis; format: ADME
T1 sequence (Q29550 whole entry): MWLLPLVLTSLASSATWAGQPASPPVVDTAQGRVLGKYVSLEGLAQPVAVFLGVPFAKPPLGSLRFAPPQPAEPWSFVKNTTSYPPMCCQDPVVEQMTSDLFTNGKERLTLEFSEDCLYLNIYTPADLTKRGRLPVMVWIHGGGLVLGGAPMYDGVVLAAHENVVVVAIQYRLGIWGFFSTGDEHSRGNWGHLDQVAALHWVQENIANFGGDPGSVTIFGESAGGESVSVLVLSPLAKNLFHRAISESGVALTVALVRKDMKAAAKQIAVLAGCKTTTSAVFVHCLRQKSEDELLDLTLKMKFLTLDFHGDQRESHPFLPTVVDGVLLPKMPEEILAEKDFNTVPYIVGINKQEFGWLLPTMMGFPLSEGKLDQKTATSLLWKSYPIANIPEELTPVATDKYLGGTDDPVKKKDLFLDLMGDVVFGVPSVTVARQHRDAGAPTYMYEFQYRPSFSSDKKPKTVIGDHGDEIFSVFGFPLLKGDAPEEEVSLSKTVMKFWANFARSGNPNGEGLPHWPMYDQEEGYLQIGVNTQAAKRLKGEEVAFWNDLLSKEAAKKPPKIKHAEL

[3] = Prodrug release in Sprague-Dawley rat plasma assessed as fluorescence intensity at 500 uM by fluorescence based analysis; format: ADME, cell-free
[4] = test system: Mus musculus; assay: Protection against cerebral infarction in C57BL/6JNifdc mouse tMCAO model assessed as decrease in infarction area in brain at 100 umol/kg, iv measured after 24 hrs by TTC staining based analysis; format: functional, organism-based; settings: dose 100.0 µmol/kg
[5] = test system: Mus musculus; assay: Anticoagulant activity in C57BL/6J mouse assessed as tail bleeding time at 40 mg/kg, ip and measured for 40 mins; format: functional
[6] = Acute liver toxicity in C57BL/6J mouse assessed as gamma-GT level in liver at 869 mg/kg, ip measured after 24 hrs; format: organism-based; settings: in vivo
[7] = test system: Mus musculus; assay: Protection against cerebral infarction in C57BL/6JNifdc mouse tMCAO model assessed as decrease in MDA level in serum at 100 umol/kg, iv measured per mg protein after 24 hrs; format: functional; settings: dose 100 µmol/kg
[8] = Acute toxicity in C57BL/6J mouse assessed as SOD level at 869 mg/kg, ip measured after 24 hrs; format: organism-based; settings: in vivo
[9] = test system: Mus musculus; assay: Acute renal toxicity in C57BL/6J mouse assessed as albumin level in serum at 869 mg/kg, ip measured after 24 hrs; format: organism-based; settings: in vivo
[10] = Acute toxicity in C57BL/6J mouse assessed as morphological changes in kidney at 869 mg/kg, ip measured after 24 hrs by Hematoxylin-Eosin staining based analysis; format: organism-based; settings: in vivo
[11] = Acute toxicity in C57BL/6J mouse assessed as morphological changes in liver at 869 mg/kg, ip measured after 24 hrs by Hematoxylin-Eosin staining based analysis; format: organism-based; settings: in vivo
[12] = Acute liver toxicity in C57BL/6J mouse assessed as AST level in serum at 869 mg/kg, ip measured after 24 hrs; format: organism-based; settings: in vivo
[13] = Acute toxicity in C57BL/6J mouse assessed as total protein level at 869 mg/kg, ip measured after 24 hrs; format: organism-based; settings: in vivo
[14] = Acute toxicity in C57BL/6J mouse assessed as total bilirubin level in serum at 869 mg/kg, ip measured after 24 hrs; format: organism-based; settings: in vivo
[15] = Acute liver toxicity in C57BL/6J mouse assessed as ALP level in serum at 869 mg/kg, ip measured after 24 hrs; format: organism-based; settings: in vivo
[16] = Acute liver toxicity in C57BL/6J mouse assessed as ALT level in serum at 869 mg/kg, ip measured after 24 hrs; format: organism-based; settings: in vivo
[17] = test system: Mus musculus; assay: Protection against cerebral infarction in C57BL/6JNifdc mouse tMCAO model assessed as decrease in LDH level in brain at 100 umol/kg, iv measured after 24 hrs; format: functional, organism-based; settings: dose 100.0 µmol/kg
[18] = test system: Mus musculus; assay: Acute renal toxicity in C57BL/6J mouse assessed as GSH level in kidney at 869 mg/kg, ip measured after 24 hrs; format: organism-based; settings: in vivo
[19] = test system: Mus musculus; assay: Anticoagulant activity in C57BL/6J mouse assessed as prothrombin time at 40 mg/kg, ip; format: functional, organism-based
[20] = Acute toxicity in C57BL/6J mouse assessed as visible bleeding in cerebral area at 869 mg/kg, ip measured after 24 hrs; format: organism-based; settings: in vivo
[21] = test system: Mus musculus; assay: Anticoagulant activity in C57BL/6J mouse assessed as activated partial thromboplastin time at 40 mg/kg, ip; format: functional, organism-based
[22] = Acute toxicity in C57BL/6J mouse assessed as creatinine level in serum at 869 mg/kg, ip measured after 24 hrs; format: organism-based; settings: in vivo
[23] = Acute toxicity in C57BL/6J mouse assessed as uric acid level in serum at 869 mg/kg, ip measured after 24 hrs; format: organism-based; settings: in vivo
[24] = Prodrug release in C57BL/6J mouse liver assessed as increase in fluorescence intensity at 100 umol/kg, iv measured after 6 hrs by fluorescence based analysis; format: ADME, organism-based; settings: in vivo, dose 100 µmol/kg
[25] = Prodrug release in Sprague-Dawley rat plasma assessed as fluorescence intensity at 500 uM measured after 24 hrs in presence of esterase inhibitor by fluorescence based analysis; format: ADME, cell-free
[26] = Prodrug release in C57BL/6J mouse brain assessed as increase in fluorescence intensity at 100 umol/kg, iv measured after 6 hrs by fluorescence based analysis; format: ADME, organism-based; settings: in vivo, dose 100 µmol/kg
[27] = Prodrug release in C57BL/6J mouse kidney assessed as increase in fluorescence intensity at 100 umol/kg, iv measured after 6 hrs by fluorescence based analysis; format: ADME, organism-based; settings: in vivo, dose 100 µmol/kg
[28] = target: T1, Liver carboxylesterase; assay: Prodrug release assessed as pig liver esterase-mediated H2S and fluorescent coumarin release by measuring half life of drug at 500 uM by fluorescence based analysis; format: ADME
[29] = Prodrug release in C57BL/6J mouse brain assessed as H2S generation by measuring increase in fluorescence intensity at 100 umol/kg, iv measured after 6 hrs by Ex vivo fluorescent imaging analysis; format: ADME, organism-based; settings: dose 100 µmol/kg
[30] = target: T1, Liver carboxylesterase; assay: Prodrug release assessed as pig liver esterase-mediated H2S and coumarin release by measuring H2S concentration at 500 uM measured after 12 hrs by methylene blue method; format: ADME; settings: isolated protein
[31] = Prodrug release in C57BL/6J mouse kidney assessed as H2S generation by measuring increase in fluorescence intensity at 100 umol/kg, iv measured after 6 hrs by Ex vivo fluorescent imaging analysis; format: ADME, organism-based; settings: dose 100 µmol/kg
[32] = target: T1, Liver carboxylesterase; assay: Prodrug release assessed as pig liver esterase-mediated H2S and fluorescent coumarin release at 500 uM incubated for 24 hrs in presence of esterase inhibitor by HPLC analysis; format: ADME; settings: isolated protein
[33] = Prodrug release in C57BL/6J mouse liver assessed as H2S generation by measuring increase in fluorescence intensity at 100 umol/kg, iv measured after 6 hrs by Ex vivo fluorescent imaging analysis; format: ADME, organism-based; settings: dose 100 µmol/kg
[34] = Drug uptake in C57BL/6J mouse kidney assessed as increase in fluorescence intensity at 100 umol/kg, iv measured after 10 mins by Ex vivo fluorescent imaging analysis; format: ADME, organism-based; settings: dose 100 µmol/kg
[35] = Drug uptake in C57BL/6J mouse brain assessed as increase in fluorescence intensity at 100 umol/kg, iv measured after 10 mins by Ex vivo fluorescent imaging analysis; format: ADME, organism-based; settings: dose 100 µmol/kg
[36] = Drug uptake in C57BL/6J mouse liver assessed as increase in fluorescence intensity at 100 umol/kg, iv measured after 10 mins by Ex vivo fluorescent imaging analysis; format: ADME, organism-based; settings: dose 100 µmol/kg

SMILES: COc1ccc2cc3c(C)cc(=S)oc3cc2c1
- t1/2 [1]: 9.06 h
- t1/2 [2]: > 120 h

SMILES: S=c1ccc2ccccc2o1
- Drug metabolism [3]: metabolite_notdetected
- t1/2 [2]: 94.44 h

SMILES: CCN(CC)c1ccc2c(CN(C)O)cc(=S)oc2c1
- t1/2 [1]: 5.78 h
- t1/2 [2]: > 120 h

SMILES: CCN(CC)c1ccc2c(C)cc(=O)oc2c1
- Activity [4]: Active; Slight Decrease Compared To Thio-Coumarins (Sulfide Prodrugs)
- Time [5]: 9.58 min

SMILES: S=c1ccc2cc3ccoc3cc2o1
- Activity [6]: Non-toxic
- t1/2 [1]: 3.95 h
- Activity [7]: 14.14 nmol
- Activity [8]: Non-toxic
- Activity [9]: Non-toxic
- Activity [10]: Non-toxic
- Activity [11]: Non-toxic
- Activity [12]: Non-toxic
- Activity [13]: Non-toxic
- Activity [14]: Non-toxic
- Activity [15]: Non-toxic
- Activity [4]: Active
- Time [5]: 16.52 min
- Activity [16]: Non-toxic
- Activity [17]: Active
- Activity [18]: Non-toxic
- Activity [19]: Active; Retained The Anticoagulant Activity Of Coumarins Observed
- t1/2 [2]: 62.89 h
- Activity [20]: Non-toxic
- Activity [21]: Active; Retained The Anticoagulant Activity Of Coumarins Observed
- Activity [22]: Non-toxic
- Activity [23]: Non-toxic

SMILES: Cc1cc(=S)oc2cc(N(C)C)ccc12
- t1/2 [1]: 36.22 h
- t1/2 [2]: > 120 h

SMILES: Cc1cc(=S)oc2cc(O)ccc12
- Drug metabolism [24]: metabolite_detected
- t1/2 [1]: 2.52 h
- Drug metabolism [25]: metabolite_notdetected
- Activity [7]: 7.59 nmol
- Drug metabolism [26]: metabolite_detected
- Drug metabolism [27]: metabolite_detected
- t1/2 [28]: 50.4 h
- Drug metabolism [29]: metabolite_detected
- Drug metabolism [30]: 31.46 µM
- Drug metabolism [31]: metabolite_detected
- Drug metabolism [32]: metabolite_notdetected
- Activity [4]: Active
- Time [5]: 10.84 min
- Activity [17]: Active
- Activity [19]: Active; Retained The Anticoagulant Activity Of Coumarins Observed
- t1/2 [2]: 57.59 h
- Activity [21]: Active; Retained The Anticoagulant Activity Of Coumarins Observed
- Drug metabolism [33]: metabolite_detected

SMILES: S=c1ccc2ccc3occc3c2o1
- Drug metabolism [3]: metabolite_notdetected
- t1/2 [2]: 66.71 h

SMILES: Cc1cc(=O)oc2cc(O)ccc12 [HYMECROMONE]
- Drug uptake [34]: Active
- Drug uptake [35]: Active
- Activity [4]: Active; Slight Decrease Compared To Thio-Coumarins (Sulfide Prodrugs)
- Time [5]: 13.99 min
- Drug uptake [36]: Active

SMILES: CCN(CC)c1ccc2c(C)cc(=S)oc2c1
- Activity [7]: 7.4 nmol
- Activity [4]: Active
- Time [5]: 16.6 min
- Activity [17]: Active
- Activity [19]: Active; Retained The Anticoagulant Activity Of Coumarins Observed
- t1/2 [2]: > 120 h
- Activity [21]: Active; Retained The Anticoagulant Activity Of Coumarins Observed

SMILES: Nc1ccc2c(C(F)(F)F)cc(=S)oc2c1
- t1/2 [1]: 9.43 h
- t1/2 [2]: > 120 h

SMILES: Cc1cc(=S)oc2cc3cc(O)ccc3cc12
- t1/2 [1]: 52.4 h
- t1/2 [2]: > 120 h

SMILES: O=c1ccc2cc3ccoc3cc2o1 [PSORALEN]
- Activity [4]: Active; Slight Decrease Compared To Thio-Coumarins (Sulfide Prodrugs)
- Time [5]: 22.24 min
